We go through 12 compounds from patent publication US12612407B2, “Imidazo[2,1-f][1,2,4]triazin-4-amine derivatives as TLR7 agonist” (BEIGENE, LTD., priority 2020, dated 2026).

The target of one assay is T1, human TLR7 (Homo sapiens, UniProt Q9NYK1).
T1 construct: host or cells: HEK293 (HEK-Blue hTLR7)
T1 sequence (Q9NYK1 27-1049): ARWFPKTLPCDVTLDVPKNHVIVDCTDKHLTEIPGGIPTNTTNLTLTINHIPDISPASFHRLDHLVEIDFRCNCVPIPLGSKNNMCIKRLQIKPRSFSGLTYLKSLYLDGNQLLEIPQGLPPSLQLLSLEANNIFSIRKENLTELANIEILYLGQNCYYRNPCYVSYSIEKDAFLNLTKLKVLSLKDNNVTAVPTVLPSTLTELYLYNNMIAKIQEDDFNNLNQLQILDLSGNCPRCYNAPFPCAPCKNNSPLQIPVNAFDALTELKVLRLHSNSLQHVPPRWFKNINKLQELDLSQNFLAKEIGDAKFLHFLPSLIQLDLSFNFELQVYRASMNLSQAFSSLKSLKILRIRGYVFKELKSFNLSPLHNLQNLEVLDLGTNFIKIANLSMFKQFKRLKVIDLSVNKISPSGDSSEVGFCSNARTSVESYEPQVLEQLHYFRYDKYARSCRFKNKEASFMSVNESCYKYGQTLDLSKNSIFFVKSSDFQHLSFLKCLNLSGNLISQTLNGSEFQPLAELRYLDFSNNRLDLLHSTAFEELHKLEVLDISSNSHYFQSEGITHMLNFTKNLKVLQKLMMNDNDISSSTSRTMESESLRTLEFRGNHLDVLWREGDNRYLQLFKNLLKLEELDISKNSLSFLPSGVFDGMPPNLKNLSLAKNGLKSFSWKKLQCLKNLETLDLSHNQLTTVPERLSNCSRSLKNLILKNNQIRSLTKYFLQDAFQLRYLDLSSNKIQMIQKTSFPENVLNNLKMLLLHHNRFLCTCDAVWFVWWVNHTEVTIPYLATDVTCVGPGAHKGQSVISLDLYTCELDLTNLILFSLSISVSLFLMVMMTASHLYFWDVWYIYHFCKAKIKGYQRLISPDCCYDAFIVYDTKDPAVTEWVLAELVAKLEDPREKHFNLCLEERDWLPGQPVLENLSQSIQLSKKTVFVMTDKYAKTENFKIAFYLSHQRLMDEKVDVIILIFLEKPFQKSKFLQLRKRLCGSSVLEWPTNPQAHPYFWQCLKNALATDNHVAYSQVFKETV
Nature of the assay: TLR7 Stimulation Determined Using HEK-Blue Detection. The class given is cell-based. Particulars: HEK-Blue hTLR7 cells, 16 hr, percentages of maximum activation with Resiquimod, Table 1, B233-B247. The source says: TLR7 Stimulation Determined Using HEK-Blue Detection
(§1) This assay was designed for studying the stimulation of human TLR7 protein in HEK-Blue hTLR7 tool cell line by monitoring the activation of NF-κB. HEK-Blue hTLR7 cells were obtained by co-transfection of the hTLR7 gene and an optimized secreted embryonic alkaline phosphatase (SEAP) reporter gene into HEK293 cells. The SEAP reporter gene was placed under the control of the IFN-β minimal promoter fused to five NF-κB and AP-1-binding sites. Stimulation with a TLR7 ligand activates NF-κB and AP-1 which induce the expression of SEAP. Levels of SEAP can be easily determined with HEK-Blue Detection, a cell culture medium that allows for real-time detection of SEAP. HEK-Blue Detection contains all the nutrients necessary for cell growth and a specific SEAP color substrate. The hydrolysis of the substrate by SEAP produces a purple/blue color that can be measured with a spectrophotometer.
When growing to 50-80% confluency, HEK-Blue hTLR7 cells were plated into 96-well plate (costar 3599) at a density of 40000 cells/well. Then compounds were added with serial dilutions over 10 points with a 0.04 nM-10 μM final concentration range in 0.1% DMSO/HEK-Blue Detection. The plates were then incubated for 16 hr at 37° C. in 5% CO2 and vortex for 30 s before measurement. The optical density at 620-655 nm was read on BMG PHERAstar FSX instrument. The EC50 for each compound was determined by calculating the percentages of the maximum activation identified with Resiquimod.

In a further assay the target is T2, human TLR 8 protein (Homo sapiens, UniProt Q9NR97).
T2 construct: expressed in transfected cells; host or cells: HEK293 (HEK-Blue hTLR8)
T2 sequence (Q9NR97 27-1041): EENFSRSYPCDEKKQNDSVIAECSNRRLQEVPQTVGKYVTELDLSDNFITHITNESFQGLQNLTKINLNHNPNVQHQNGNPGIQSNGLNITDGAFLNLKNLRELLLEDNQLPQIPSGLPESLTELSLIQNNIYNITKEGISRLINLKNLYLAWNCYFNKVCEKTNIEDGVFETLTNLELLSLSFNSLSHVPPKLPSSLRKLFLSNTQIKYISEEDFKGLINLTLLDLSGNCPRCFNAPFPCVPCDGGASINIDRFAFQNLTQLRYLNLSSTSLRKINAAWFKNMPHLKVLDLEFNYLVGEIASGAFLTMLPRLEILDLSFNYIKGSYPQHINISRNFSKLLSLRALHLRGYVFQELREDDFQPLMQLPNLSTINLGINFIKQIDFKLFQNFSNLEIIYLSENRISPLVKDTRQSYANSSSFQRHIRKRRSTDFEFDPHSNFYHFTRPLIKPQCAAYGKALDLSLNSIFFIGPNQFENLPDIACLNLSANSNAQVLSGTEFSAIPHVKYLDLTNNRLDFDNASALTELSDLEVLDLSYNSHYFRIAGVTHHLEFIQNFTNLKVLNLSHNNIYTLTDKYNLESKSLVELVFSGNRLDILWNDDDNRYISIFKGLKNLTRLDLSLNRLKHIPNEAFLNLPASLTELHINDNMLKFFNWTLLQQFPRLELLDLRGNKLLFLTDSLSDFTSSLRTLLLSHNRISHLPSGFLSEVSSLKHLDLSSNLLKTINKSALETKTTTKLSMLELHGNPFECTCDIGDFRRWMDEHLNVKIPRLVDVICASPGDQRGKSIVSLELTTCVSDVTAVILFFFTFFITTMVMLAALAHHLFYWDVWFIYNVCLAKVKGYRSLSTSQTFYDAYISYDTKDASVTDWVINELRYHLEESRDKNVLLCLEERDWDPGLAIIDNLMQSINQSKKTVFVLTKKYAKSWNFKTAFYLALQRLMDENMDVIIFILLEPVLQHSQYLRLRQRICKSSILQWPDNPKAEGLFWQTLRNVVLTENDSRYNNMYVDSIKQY
The assay is described as follows: TLR8 Stimulation determined using HEK-Blue Detection. The following applies: HEK-Blue hTLR8 cells, 16 hr, percentages of maximum activation with Resiquimod or Motolimod, Table 3. It is filed as cell-based.
Excerpt: TLR8 Stimulation determined using HEK-Blue Detection
as §1, with “TLR 8” for “TLR7”, “hTLR8” for “hTLR7”
When growing to 50-80% confluency, HEK-Blue hTLR7/8 cells were plated into 96-well plate (costar 3599) at a density of 40000 cells/well. Then compounds were added with serial dilutions over 10 points with a 1 nM-10 uM final concentration range in 0.1% DMSO/HEK-Blue Detection. The plates were then incubated for 16 hr at 37° C. in 5% CO2. The optical density at 620-655 nm was read on BMG PHERAstar FSX instrument. The EC50 for each compound was determined by calculating the percentages of the maximum activation identified with Resiquimod or Motolimod.

Broadly, the EC50 is the concentration at which the effect is half-maximal. Low readings indicate a more potent agent, high ones a less potent agent.

SMILES strings stand for the structures. A value given as a limit tells only on which side of the number the result lay.

Take `CCC[C@H](C)Nc1nc(N)c2ncc(Cc3cnc(N4CCN[C@@H](CC#N)C4)c(C)c3)n2n1` [Compound B233, 2-((S)-4-(5-((4-amino-2-(((S)-pentan-2-yl)amino)imidazo[2,1-f][1,2,4]triazin-7-yl)methyl)-3-methylpyridin-2-yl)piperazin-2-yl)acetonitrile]: the figures for the EC50 on human TLR7 and at human TLR 8 protein were 18.4 nM and more than 10000 nM, respectively.

On to `CCCC(C)Oc1nc(N)c2ncc(Cc3cnc(N4CCC(CNCC(C)C)CC4)c(C)c3)n2n1` (stereo not drawn) [Compound B234, 7-((6-(4-((isobutylamino)methyl)piperidin-1-yl)-5-methylpyridin-3-yl)methyl)-2-(pentan-2-yloxy)imidazo[2,1-f][1,2,4]triazin-4-amine], for which the values for the EC50 on human TLR7 and on human TLR 8 protein were 5.3 nM and 451 nM, respectively.

In the case of `CCCC(CO)Oc1nc(N)c2ncc(Cc3cnc(N4CCC(CNC)CC4)c(C)c3)n2n1` (stereo not drawn) [Compound B235, 2-((4-amino-7-((5-methyl-6-(4-((methylamino)methyl)piperidin-1-yl)pyridin-3-yl)methyl)imidazo[2,1-f][1,2,4]triazin-2-yl)oxy)pentan-1-ol], the EC50 on human TLR7 worked out at 63 nM; on human TLR 8 protein it was 3630 nM.

Turning to `CCCC(O)COc1nc(N)c2ncc(Cc3cnc(N4CCC(CNC)CC4)c(C)c3)n2n1` (stereo not drawn) [Compound B236, 1-((4-amino-7-((5-methyl-6-(4-((methylamino)methyl)piperidin-1-yl)pyridin-3-yl)methyl)imidazo[2,1-f][1,2,4]triazin-2-yl)oxy)pentan-2-ol], the results for the EC50 on human TLR7 and at human TLR 8 protein were 648 nM and more than 10000 nM, respectively.

As to `CCCC(C)Oc1nc(N)c2ncc(Cc3ccc(C4CCNCC4)nc3F)n2n1` (stereo not drawn) [Compound B238, 7-((2-fluoro-6-(piperidin-4-yl)pyridin-3-yl)methyl)-2-(pentan-2-yloxy)imidazo[2,1-f][1,2,4]triazin-4-amine], the results for the EC50 on human TLR7 and on human TLR 8 protein were 6.7 nM and 169 nM, respectively.

As for `CCC[C@H](C)Oc1nc(N)c2ncc(Cc3ccc(C4CCNCC4)nc3F)n2n1` [Compound B239, (S)-7-((2-fluoro-6-(piperidin-4-yl)pyridin-3-yl)methyl)-2-(pentan-2-yloxy)imidazo[2,1-f][1,2,4]triazin-4-amine], the EC50 at human TLR7 was 3.3 nM; at human TLR 8 protein, 122 nM.

Take `CCC[C@H](C)Nc1nc(N)c2ncc(Cc3cnc(C4CCNCC4)c(C)c3)n2n1` [Compound B240, (S)-7-((5-methyl-6-(piperidin-4-yl)pyridin-3-yl)methyl)-N2-(pentan-2-yl)imidazo[2,1-f][1,2,4]triazine-2,4-diamine]: the EC50 on human TLR7 was 1 nM; on human TLR 8 protein, 1510 nM.

Turning to `CCC[C@H](C)Oc1nc(N)c2ncc(Cc3cnc(N4CCNCC4)c(OC)c3)n2n1` [Compound B241, (S)-7-((5-methoxy-6-(piperazin-1-yl)pyridin-3-yl)methyl)-2-(pentan-2-yloxy)imidazo[2,1-f][1,2,4]triazin-4-amine], the EC50 on human TLR7 turned out to be 5.5 nM; at human TLR 8 protein it was 445 nM.

Turning to `CCCC(CCO)Oc1nc(N)c2ncc(Cc3ccc(C4CCNCC4)nc3F)n2n1` (stereo not drawn) [Compound B242, 3-((4-amino-7-((2-fluoro-6-(piperidin-4-yl)pyridin-3 yl)methyl)imidazo[2,1-f][1,2,4]triazin-2-yl)oxy)hexan-1-ol], the results for the EC50 at human TLR7 and on human TLR 8 protein were 9.8 nM and 74 nM, respectively.

For the compound `CCC[C@H](C)Oc1nc(N)c2ncc(Cc3ccn(C4CCNCC4)c(=O)c3)n2n1` [Compound B243, (S)-4-((4-amino-2-(pentan-2-yloxy)imidazo[2,1-f][1,2,4]triazin-7-yl)methyl)-1-(piperidin-4-yl)pyridin-2(1H)-one], the EC50 at human TLR7 was 35 nM; at human TLR 8 protein it was 365 nM.

Consider `CCC[C@H](C)Nc1nc(N)c2ncc(Cc3cnc(N4CCN(C(=O)CN(C)CCNC)CC4)c(C)c3)n2n1` [Compound B244, (S)-1-(4-(5-((4-amino-2-(pentan-2-ylamino)imidazo[2,1-f][1,2,4]triazin-7-yl)methyl)-3-methylpyridin-2-yl)piperazin-1-yl)-2-(methyl(2-(methylamino)ethyl)amino)ethan-1-one], for which the figures for the EC50 on human TLR7 and at human TLR 8 protein were 12 nM and more than 10000 nM, respectively.

Take `CCC[C@H](C)Nc1nc(N)c2ncc(Cc3cnc(N4CCC(CN(C)CCNC)CC4)c(C)c3)n2n1` [Compound B245, (S)-7-((5-methyl-6-(4-((methyl(2-(methylamino)ethyl)amino)methyl)piperidin-1-yl)pyridin-3-yl)methyl)-N2-(pentan-2-yl)imidazo[2,1-f][1,2,4]triazine-2,4-diamine]: the figures for the EC50 on human TLR7 and on human TLR 8 protein were 2.5 nM and 485 nM, respectively.
